Source: ChEMBL document CHEMBL1155826, “Refinement of histamine H3 ligands pharmacophore model leads to a new class of potent and selective naphthalene inverse agonists” (Bioorg Med Chem Lett, 2008)

Legend:
Histamine H3 receptor [1] = target: T1, Histamine H3 receptor (Homo sapiens, UniProt Q9Y5N1); assay: Displacement of [3H]RAMH from human histamine H3 receptor expressed in CHO cells at 3 uM; assay type: cell-based
Histamine H3 receptor [2] = target: T1, Histamine H3 receptor; assay: Displacement of [3H]RAMH from human histamine H3 receptor expressed in CHO cells; assay type: cell-based
Histamine H3 receptor [3] = target: T1, Histamine H3 receptor; assay: Inverse agonist activity at human histamine H3 receptor expressed in CHO cells by GTPgammaS assay; assay type: functional, cell-based
[4] = target: Histamine H1 receptor (Homo sapiens) (UniProt P35367); assay: Inhibition of histamine H1 receptor at 3 uM
[5] = target: Histamine H2 receptor (Homo sapiens) (UniProt P25021); assay: Inhibition of histamine H2 receptor at 3 uM
[6] = target: Histamine H4 receptor (Homo sapiens) (UniProt Q9H3N8); assay: Inhibition of histamine H4 receptor at 3 uM
Histamine H4 receptor (Homo sapiens), sequence (Q9H3N8 whole entry): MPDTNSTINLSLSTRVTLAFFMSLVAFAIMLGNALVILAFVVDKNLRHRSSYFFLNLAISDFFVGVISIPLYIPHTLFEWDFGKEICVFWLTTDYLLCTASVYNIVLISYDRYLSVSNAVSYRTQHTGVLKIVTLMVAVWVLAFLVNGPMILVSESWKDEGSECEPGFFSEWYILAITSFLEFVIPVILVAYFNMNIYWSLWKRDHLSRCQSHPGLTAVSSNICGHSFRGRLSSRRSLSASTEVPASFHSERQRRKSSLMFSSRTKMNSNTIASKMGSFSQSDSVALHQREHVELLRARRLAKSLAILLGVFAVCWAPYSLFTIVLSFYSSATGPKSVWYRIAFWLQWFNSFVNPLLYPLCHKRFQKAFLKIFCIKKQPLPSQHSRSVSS

T1 sequence (Q9Y5N1 whole entry): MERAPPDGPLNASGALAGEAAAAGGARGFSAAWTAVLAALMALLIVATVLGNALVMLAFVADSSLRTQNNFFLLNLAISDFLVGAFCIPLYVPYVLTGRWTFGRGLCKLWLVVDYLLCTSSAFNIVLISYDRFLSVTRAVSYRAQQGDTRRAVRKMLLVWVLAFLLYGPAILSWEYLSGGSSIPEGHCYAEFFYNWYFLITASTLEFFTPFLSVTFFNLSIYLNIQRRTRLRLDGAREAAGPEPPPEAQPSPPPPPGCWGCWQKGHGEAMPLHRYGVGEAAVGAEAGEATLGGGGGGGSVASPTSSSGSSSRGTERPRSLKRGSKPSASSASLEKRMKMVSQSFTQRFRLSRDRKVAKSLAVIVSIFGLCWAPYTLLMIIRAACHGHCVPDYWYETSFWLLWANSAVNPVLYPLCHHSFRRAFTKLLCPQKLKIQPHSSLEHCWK
Histamine H2 receptor (Homo sapiens), sequence (P25021 whole entry): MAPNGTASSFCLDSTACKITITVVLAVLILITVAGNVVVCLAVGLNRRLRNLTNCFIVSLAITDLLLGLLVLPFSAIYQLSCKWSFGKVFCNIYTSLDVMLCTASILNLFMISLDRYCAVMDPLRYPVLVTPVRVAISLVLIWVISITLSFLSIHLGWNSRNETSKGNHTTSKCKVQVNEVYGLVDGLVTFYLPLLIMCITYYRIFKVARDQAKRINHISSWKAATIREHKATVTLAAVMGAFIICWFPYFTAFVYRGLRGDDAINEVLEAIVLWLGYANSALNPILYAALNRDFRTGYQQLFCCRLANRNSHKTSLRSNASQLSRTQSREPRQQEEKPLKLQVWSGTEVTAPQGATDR
Histamine H1 receptor (Homo sapiens), sequence (P35367 whole entry): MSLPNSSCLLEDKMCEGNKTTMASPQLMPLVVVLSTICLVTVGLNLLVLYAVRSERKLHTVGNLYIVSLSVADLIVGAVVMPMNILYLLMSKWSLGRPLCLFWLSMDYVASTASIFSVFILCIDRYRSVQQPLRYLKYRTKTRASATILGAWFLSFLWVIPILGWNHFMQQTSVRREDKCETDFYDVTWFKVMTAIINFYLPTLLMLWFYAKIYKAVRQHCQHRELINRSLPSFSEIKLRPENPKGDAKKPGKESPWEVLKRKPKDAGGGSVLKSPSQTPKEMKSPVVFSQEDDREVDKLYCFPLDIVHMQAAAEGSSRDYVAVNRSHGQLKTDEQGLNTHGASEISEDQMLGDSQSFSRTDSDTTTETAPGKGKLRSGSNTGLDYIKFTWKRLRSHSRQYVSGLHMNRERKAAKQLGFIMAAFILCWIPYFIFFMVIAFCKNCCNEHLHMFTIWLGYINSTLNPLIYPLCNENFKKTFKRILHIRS

| Compound | inhibition (Histamine H3 receptor [1]) [%] | Ki (Histamine H3 receptor [2]) [µM] | further results |
| --- | --- | --- | --- |
| CC(C)N1CCC(Nc2ccc3cc(C(=O)N4CCOCC4)ccc3c2)CC1 | 61 | – | – |
| c1ccc2c(Nc3ccc(OCCCN4CCCCC4)cc3)ccnc2c1 | – | 0.0005 | – |
| C[C@H]1CC[C@H](C)N1CCCOc1ccc(-c2ccc(C(=O)N3CCOCC3)cc2)cc1 (single isomer, unassigned) [A-349,821] | – | 0.012 | – |
| CC(C)N1CCC(Oc2ccc3c(C(=O)N4CCCC4)cccc3c2)CC1 | 53 | – | – |
| CC(C)N1CCC(Oc2ccc3c(C(=O)NC4CCCCC4)cccc3c2)CC1 | 52 | – | – |
| CC(C)N1CCC(Oc2ccc3cc(C(=O)NC4CCCCC4)ccc3c2)CC1 | – | 0.087 | EC50 (Histamine H3 receptor [3]): 0.021 µM; inhibition [4]: < 25%; inhibition [5]: < 25%; inhibition [6]: < 25% |
| CC(C)N1CCC(Nc2ccc3cc(C(=O)N4CCCC4)ccc3c2)CC1 | 45 | – | – |
| O=C(c1ccc2cc(OCCCN3CCCCC3)ccc2c1)N1CCCC1 | – | 0.004 | – |
| CC(C)N1CCC(Oc2ccc3cc(C(=O)N4CCCC4)ccc3c2)CC1 | – | 0.057 | – |
| CC(C)N1CCC(Nc2ccc3cc(C(=O)NC4CCCCC4)ccc3c2)CC1 | 57 | – | – |
| O=C(c1cccc2cc(OCCCN3CCCCC3)ccc12)N1CCCC1 | 58 | – | – |
